EC50 data for 22 compounds are collected here from patent US8916702B2 (priority 2012, dated 2014).

The structures appear in SMILES notation. Read-outs that look alike come from different tables or passages of the source.

For this experiment, the system named is HCV pseudoparticles (genotype 1a HCV E1 and E2 envelope, H77C isolate). The experiment in a line: microbe, parasite or virus in culture. The class given is cell-based. The settings on record: Hepatitis C virus.
Where [1] appears, read: Huh-7, 48 h, read-out: Activity (EC50 class), HCV pseudoparticle infection of Huh7 cells, luciferase 2 days after infection, EC50 expressed as class A/B.
Setting [2] is: Huh-7, read-out: Activity (EC50 class), HCV pseudoparticles (genotype 1a, H77C) in Huh7 cells, EC50 expressed as class A/B.
Where [3] appears, read: Huh-7, 48 h, read-out: Activity (EC50 class), HCV pseudoparticles, Huh7 cells, luciferase 2 days after infection, average of duplicates.

A word on the EC50: it is the concentration needed to bring the measured effect to its halfway point. Take `COC(=O)[C@H](CCNC(=O)C(=O)N(C)C)NC(=O)c1ccc(Nc2nc(NC3(c4ccc(Cl)cc4)CC3)nc(OCC(F)(F)F)n2)cc1` [Compound 1011, (S)-methyl 2-(4-(4-(1-(4-chlorophenyl)cyclopropylamino)-6-(2,2,2-trifluoroethoxy)-1,3,5-triazin-2-ylamino)benzamido)-4-(2-(dimethylamino)-2-oxoacetamido)butanoate]: under setting [1], the EC50 was in the range of 0.01 to 10 nM.

Turning to `CC(C)(CNC(=O)c1ccc(Nc2nc(NC3(c4ccc(Cl)cc4)CC3)nc(OCC(F)(F)F)n2)cc1)NC(=O)C(=O)Nc1cc(F)cc(F)c1` [Compound 3424], the EC50 under setting [2] lay within 0.01 to 10 nM. For `O=C(NC/C(=N/C(=O)c1ccc(Nc2nc(NC3(c4ccc(Cl)cc4)CC3)nc(OCC(F)(F)F)n2)cc1)C(=O)O)C(=O)Nc1ccc(CCO)cc1` [Compound 3154], the half-maximal effective concentration (EC50) runs as follows: (Huh-7, 48 h, HCV pseudoparticles (genotype 1a, H77C) in Huh7 cells, average of duplicate, luciferase 2 days after infection) 1.44 nM; under setting [2], 0.01 to 10 nM. In the case of `CC(C)(CNC(=O)C(=O)Nc1ccc2[nH]nnc2c1)CNC(=O)c1ccc(Nc2nc(NC3(c4ccc(Cl)cc4)CC3)nc(OCC(F)(F)F)n2)cc1` [Compound 3352], the EC50 under setting [2] was in the range of 0.01 to 10 nM. With `O=C(NCC[C@H](NC(=O)c1ccc(Nc2nc(NC3(c4ccc(Cl)cc4)CC3)nc(OCC(F)(F)F)n2)cc1)C(=O)O)C(=O)NCC1CC1c1cccc2c1OCO2` (stereo partly drawn) [Compound 1446], the EC50 under setting [1] was in the range of 0.01 to 10 nM.

As to `Cc1nc(-c2ccc(NC(=O)C(=O)NCC(C)(C)CNC(=O)c3ccc(Nc4nc(NC5(c6ccc(Cl)cc6)CC5)nc(OCC(F)(F)F)n4)cc3)cc2)no1` [Compound 1563], the 50% effective concentration (EC50) under setting [1] is 0.01 to 10 nM.

Regarding `CC(C)(CNC(=O)C(=O)Nc1ccc2cc[nH]c2c1)CNC(=O)c1ccc(Nc2nc(NC3(c4ccc(Cl)cc4)CC3)nc(OCC(F)(F)F)n2)cc1` [Compound 3337], the EC50 under setting [2] lay in the range of 0.01 to 10 nM. For `O=C(NCC[C@H](NC(=O)c1ccc(Nc2nc(NC3(c4ccc(Cl)cc4)CC3)nc(OCC(F)(F)F)n2)cc1)C(=O)O)C(=O)Nc1cccc(-n2cnnc2)c1` [Compound 3653], the EC50 under setting [3] is 0.01 to 10 nM. Take `COc1ccccc1NC(=O)C(=O)NC[C@H](NC(=O)c1ccc(Nc2nc(NC3(c4ccc(Cl)cc4)CC3)nc(OCC(F)(F)F)n2)cc1)C(=O)O` [Compound 1364]: the EC50 under setting [1] lay within 0.01 to 10 nM. Turning to `CC(C)(C)OC(=O)NC1CCCC(NC(=O)C(=O)NC[C@H](NC(=O)c2ccc(Nc3nc(NC4(c5ccc(Cl)cc5)CC4)nc(OCC(F)(F)F)n3)cc2)C(=O)O)C1` (stereo partly drawn) [Compound 1083], the EC50 is, setting by setting: (Huh-7, 48 h, HCV pseudoparticle infection of Huh7 cells, luciferase 2 days after infection, average of duplicates) 1.78 nM; under setting [1], 0.01 to 10 nM. Consider `COC(=O)[C@@H](CCNC(=O)C(=O)Nc1ccc(OCCC2C(=O)c3ccccc3C2=O)nc1)NC(=O)c1ccc(Nc2nc(NC3(c4ccc(Cl)cc4)CC3)nc(OCC(F)(F)F)n2)cc1` [Compound 3569], for which the EC50 under setting [2] lay in the range of 0.01 to 10 nM.

`CC(C)(C)c1cccc(NC(=O)C(=O)NC[C@H](NC(=O)c2ccc(Nc3nc(NC4(c5ccc(Cl)cc5)CC4)nc(OCC(F)(F)F)n3)cc2)C(=O)O)c1` [Compound 3760]: the EC50 under setting [3] was 0.01 to 10 nM.

As for `CC(C)(CNC(=O)C(=O)Nc1ccc(F)cc1)CNC(=O)c1ccc(Nc2nc(NC3(c4ccc(Cl)cc4)CC3)nc(OCC(F)(F)F)n2)cc1` [Compound 1479], the EC50 under setting [1] is 0.01 to 10 nM. For the compound `Cc1nc(C(F)(F)F)ccc1NC(=O)C(=O)NCC(C)(C)CNC(=O)c1ccc(Nc2nc(NC3(c4ccc(Cl)cc4)CC3)nc(OCC(F)(F)F)n2)cc1` [Compound 3249], the 50% effective concentration (EC50) under setting [2] lay in the range of 0.01 to 10 nM.

Turning to `CC(C)(CNC(=O)C(=O)Nc1ccc(C(F)(F)F)cc1F)CNC(=O)c1ccc(Nc2nc(NC3(c4ccc(Cl)cc4)CC3)nc(OCC(F)(F)F)n2)cc1` [Compound 3409], the EC50 under setting [2] lay in the range of 0.01 to 10 nM. `CC(C)(CNC(=O)C(=O)Nc1ccc2ncoc2c1)CNC(=O)c1ccc(Nc2nc(NC3(c4ccc(Cl)cc4)CC3)nc(OCC(F)(F)F)n2)cc1` [Compound 1567]: under setting [1], the EC50 was 0.01 to 10 nM.

As to `O=C(NCc1cccc(F)c1)C(=O)NC[C@H](NC(=O)c1ccc(Nc2nc(NC3(c4ccc(Cl)cc4)CC3)nc(OCC(F)(F)F)n2)cc1)C(=O)O` [Compound 1163], under setting [1], the EC50 was 0.01 to 10 nM.

As for `CC(C)(CNC(=O)C(=O)NOc1ccccc1)CNC(=O)c1ccc(Nc2nc(NC3(c4ccc(Cl)cc4)CC3)nc(OCC(F)(F)F)n2)cc1` [Compound 3064], under setting [2], the EC50 lay within 0.01 to 10 nM.

On to `COC(=O)[C@H](CNC(=O)C(=O)NCCc1ccncc1)NC(=O)c1ccc(Nc2nc(NC3(c4ccc(Cl)cc4)CC3)nc(OCC(F)(F)F)n2)cc1` [Compound 1288], for which the concentration giving a half-maximal response (EC50) under setting [1] fell in the range of 0.01 to 10 nM. The same measure, in the same setting: as for `O=C(NC[C@H](NC(=O)c1ccc(Nc2nc(NC3(c4ccc(Cl)cc4)CC3)nc(OCC(F)(F)F)n2)cc1)C(=O)O)C(=O)Nc1cccc(C(F)(F)F)c1` [Compound 1359], the figure is 0.01 to 10 nM. For the compound `CC(C)(CNC(=O)C(=O)Nc1ccc(C(=O)N2CCCCC2)cc1)CNC(=O)c1ccc(Nc2nc(NC3(c4ccc(Cl)cc4)CC3)nc(OCC(F)(F)F)n2)cc1` [Compound 1568], the concentration for a half-maximal effect (EC50) under setting [1] is 0.01 to 10 nM. Take `COC(=O)/C(CCNC(=O)C(=O)Nc1ccc(N2CCOCC2)nc1)=N\C(=O)c1ccc(Nc2nc(NC3(c4ccc(Cl)cc4)CC3)nc(OCC(F)(F)F)n2)cc1` [Compound 3585]: under setting [2], the EC50 was 0.01 to 10 nM.
